Our source for the IC50 values is US7381749B2, “Sulfonamides as inhibitors of histone deacetylase for the treatment of disease” (Kalypsys, Inc., priority 2004, dated 2008).

One experiment has as its system HDAC. The experiment is described as follows: In vitro HDAC-inhibition assay (Fluor de Lys fluorescent substrate). The following applies: HDAC enzyme source (e.g. partially purified nuclear extract or immunopurified HDAC complexes). The class given is biochemical. The method, then:
In vitro HDAC-Inhibition Assay:
This assay measures a compound's ability to inhibit acetyl-lysine deacetylation in vitro and was used as both a primary screening method as well as for IC50 determinations of confirmed inhibitors. The assay is performed in vitro using an HDAC enzyme source (e.g. partially purified nuclear extract or immunopurified HDAC complexes) and a proprietary fluorescent substrate/developer system (HDAC Quantizyme Fluor de Lys Fluorescent Activity Assay, BIOMOL). The assay is run in 1,536-well Greiner white-bottom plates using the following volumes and order of addition: • Step 1: Enzyme (2.5 ul) source added to plate (from refrigerated container) • Step 2: Compounds (50 nl) added with pin transfer device • Step 3: Fluor de Lys (2.5 ul) substrate added, incubate at RT, 30 minutes • Step 4: Developer (5 ul) solution is added (containing TSA), to stop reaction • Step 5: Plate Reader—data collection • The deacetylated fluorophore is excited with 360 nm light and the emitted light (460 nm) is detected on an automated fluorometric plate reader (Aquest, Molecular Devices).

The test system of another experiment is HDAC in cells. Briefly: Cellular IC50 (cellular assays: histone hyperacetylation cytoblot / differential cytotoxicity). The class given is cell-based. The note with it: transformed cell lines (e.g. HeLa, A549, MCF-7); cell line not specified. The method, then: These two secondary assays evaluates a compound's ability to inhibit HDAC in cells by measuring cellular histone acetylation levels. The cytoblot facilitates quantitative EC50 information for cellular HDAC inhibition. Transformed cell lines (e.g. HeLa, A549, MCF-7) are cultured under standard media and culture conditions prior to plating.
Cells (approx. 2,500/well) are allowed to adhere 10-24 hours to wells of a 384-well Greiner PS assay plate in media containing 1-5% serum. Cells are treated with appropriate compound and specific concentrations for 0 to 24 hours. Cells are washed once with PBS (60 ul) and then fixed (95% ethanol, 5% acetic acid or 2% PFA) for 1 minute at RT (30 ul). Cells are blocked with 1% BSA for 1 hour and washed and stained with antibody (e.g. anti-Acetylated Histone H3, Upstate Biotechnology), followed by washing and incubation with an appropriate secondary antibody conjugated to HRP or fluorophore. For luminescence assays, signal is generated using Luminol substrate (Santa Cruz Biotechnology) and detected using an Aquest plate reader (Molecular Devices).
Differential Cytotoxicity Assay:
HDAC inhibitors display differential cytotoxicity toward certain transformed cell lines. Cells are cultured according to standard ATCC recommended conditions that are appropriate to each cell type. Compounds were tested for their ability to kill different cell types (normal and transformed) using the ATPlite luminescence ATP detection assay system (Perkin Elmer). Assays are run in either 384-well or 1536-well Greiner PS plates. Cells (30 ul or 5 ul, respectively) are dispensed using either multichannel pipette for 384-well plates, or proprietary Kalypsys bulk liquid dispenser for 1536-well plates. Compounds added using proprietary pin-transfer device (500 nL or 5 nL) and incubated 5 to 30 hours prior to analysis. Luminescence is measured using Aquest plate reader (Molecular Devices).

Structures are written as SMILES. pIC50: −log10 of the molar value.

On to `CC(=O)SCC(=O)c1ccc(NS(=O)(=O)c2ccccc2Cl)cc1` [Example 38], for which the pIC50 with HDAC and in the experiment on HDAC in cells was more than 6.00 throughout.

With `CC(=O)SCC(=O)c1cccc(NS(=O)(=O)c2ccc(OC(F)(F)F)cc2)c1` [Example 39], the pIC50 in the experiment with HDAC and in the experiment with HDAC in cells was more than 6.00 each time.

With `CC(=O)SCC(=O)c1ccccc1NS(=O)(=O)c1ccc(OC(F)(F)F)cc1` [Example 40], the negative logarithm of the IC50 (pIC50) was more than 5.00 with HDAC and less than 4.30 in the experiment with HDAC in cells.

For `CC(=O)SCC(=O)c1ccc(NS(=O)(=O)c2cccc(OC(F)(F)F)c2)cc1` [Example 41], the pIC50 in the experiment on HDAC and in the experiment on HDAC in cells was more than 6.00 throughout.

For `CC(=O)SCC(=O)c1ccc(NS(=O)(=O)c2cccc(F)c2)cc1` [Example 46], the pIC50 in the experiment with HDAC and in the experiment on HDAC in cells was more than 6.00 throughout.

Regarding `CC(=O)SCC(=O)c1ccc(NS(=O)(=O)c2ccc(OC(F)(F)F)cc2)cc1F` [Example 47, Thioacetic acid S-{2-[2-fluoro-4-(4-trifluoromethoxy-benzenesulfonylamino)-phenyl]-2-oxo-ethyl}ester], the pIC50 in the experiment on HDAC and with HDAC in cells was more than 6.00 each time.

For the molecule `CC(=O)SCC(=O)c1ccc2c(c1)CCN2S(=O)(=O)c1ccccc1` [Example 48, Thioacetic acid S-[2-(1-benzenesulfonyl-2,3-dihydro-1H-indol-5-yl)-2-oxo-ethyl]ester], the pIC50 in the experiment with HDAC is more than 6.00; with HDAC in cells it was more than 5.00.

With `CC(=O)SCC(=O)c1ccc2c(ccn2S(=O)(=O)c2ccccc2)c1` [Example 49, Thioacetic acid S-[2-(1-benzenesulfonyl-1H-indol-5-yl)-2-oxo-ethyl]ester], the pIC50 with HDAC and in the experiment with HDAC in cells was more than 6.00 throughout.

Turning to `COc1cccc(S(=O)(=O)Nc2ccc(C(=O)CSC(C)=O)cn2)c1` [Example 50, Thioacetic acid S-{2-[6-(3-methoxy-benzenesulfonylamino)-pyridin-3-yl]-2-oxo-ethyl}ester], the pIC50 in the experiment with HDAC and in the experiment on HDAC in cells was more than 6.00 in each case.

In the case of `CC(=O)SCC(=O)c1ccc(NS(=O)(=O)c2ccccn2)cc1` [Example 51, Thioacetic acid S-{2-oxo-2-[4-(pyridine-2-sulfonylamino)-phenyl]-ethyl}ester], the pIC50 with HDAC and in the experiment on HDAC in cells was more than 6.00 in each case.

`CC(=O)SCC(=O)c1ccc(NS(=O)(=O)c2cccnc2)cc1` [Example 52, Thioacetic acid S-{2-oxo-2-[4-(pyridine-3-sulfonylamino)-phenyl]-ethyl}ester]: the pIC50 in the experiment on HDAC was more than 6.00; in the experiment with HDAC in cells, more than 5.00.

For the molecule `CC(=O)SCC(=O)c1ccc2c(c1)CCN2S(=O)(=O)c1ccccn1` [Example 53, Thioacetic acid S-{2-oxo-2-[1-(pyridine-2-sulfonyl)-2,3-dihydro-1H-indol-5-yl]-ethyl}ester], the pIC50 with HDAC and in the experiment with HDAC in cells was more than 6.00 throughout.
